Assay results from US20190142800A1, “SYNERGISTIC ANTIFUNGAL COMPOSITIONS AND METHODS THEREOF” (VYOME THERAPEUTICS LIMITED, priority 2016, published 2019).

Experiments:
[1] = tested on: Trichophyton rubrum (ATCC-28188); test: Checkerboard assay of fatty acid/ester with antifungals on Trichophyton rubrum (ATCC 28188); assay type: cell-based; design: key to FIC index: FIC index = sum of FICs; FIC = agent conc in well / agent MIC; conditions: for MIC: Trichophyton rubrum, ATCC28188, agent alone
[2] = tested on: azole resistant C. albicans MTCC 227; test: Checkerboard assay on azole resistant C. albicans MTCC 227; assay type: cell-based, Candida albicans; conditions: for MIC: Candida albicans, MTCC227, agent alone
C. albicans = test: Checkerboard assay of clotrimazole and oleic acid (C18) in C. albicans; assay type: cell-based, Candida albicans; conditions: clotrimazole + oleic acid, FIGS. 1B and 1C
Description: The synergy is measured by determining the fractional inhibitory concentration (FIC) value of the combination. This experimental set up, called checkerboard method, allows measurement of a desired effect (inhibition of fungal growth in this case) at different combinations of various concentrations of the two agents (antifungal agent and fatty acid/ester). […] No agent is added to the penultimate column on the right and the bottom row. The final column on the right is used for growth control (only inoculum in broth) and sterility control (broth alone, no inoculum). […] FIC value for each agent in a particular well of the checkerboard layout was calculated by dividing the agent concentration in that well by the established MIC value of the agent against the test organism (Hsieh et al., Synergy assessed by checkerboard: A critical Analysis, Diagn. Microbiol. Infect Dis. (1993) 16:343-349). FIC values for both agents in a particular well were calculated in this way followed by determination of the FIC index (sum of the FICs of each drug in the concerned well). […] Agents Chemother. (2010) 54(2): 602-609].

[3] = agent's MIC in combination antifungal + caprylic acid (partner: other agent of same combination no.)
[4] = agent's MIC in combination antifungal + glyceryl monocaprylate (partner: other agent of same combination no.)
[5] = agent's MIC in combination antifungal + lauric acid (partner: other agent of same combination no.)
[6] = agent's MIC in combination antifungal + propylene glycol monolaurate (partner: other agent of same combination no.)
[7] = antifungal in combination with caprylic acid
[8] = antifungal in combination with glyceryl monocaprylate
[9] = antifungal in combination with lauric acid
[10] = antifungal in combination with propylene glycol monocaprylate
[11] = antifungal in combination with propylene glycol monolaurate
[12] = combination antifungal + caprylic acid
[13] = combination antifungal + glyceryl monocaprylate
[14] = combination antifungal + lauric acid
[15] = combination antifungal + propylene glycol monolaurate
[16] = antifungal in combination with undecylenic acid

SMILES: Clc1ccccc1C(c1ccccc1)(c1ccccc1)n1ccnc1 [Clotrimazole]
- MIC ([1]; Table 1, caprylic acid series): 0.6 µg/mL
- MIC ([1]; Table 2, propylene glycol monocaprylate series): 0.6 µg/mL
- MIC ([1]; Table 3, glyceryl monocaprylate series): 0.6 µg/mL
- MIC ([1]; Table 5, lauric acid (C12) series): 0.5 µg/mL
- MIC ([1]; Table 6, propylene glycol monolaurate series): 0.5 µg/mL
- Combination MIC [1, 3]: 0.075 µg/mL
- Combination MIC [1, 4]: 0.075 µg/mL
- Combination MIC [1, 5]: 0.125 µg/mL
- Combination MIC [1, 6]: 0.125 µg/mL
- FIC index [1, 7]: 0.375
- Interaction [1, 7]: Synergistic (Combinations that gave FIC indices less than 1 were designated “synergistic”)
- FIC index [1, 8]: 0.625
- Interaction [1, 8]: Synergistic (Combinations that gave FIC indices less than 1 were designated “synergistic”)
- FIC index [1, 9]: 0.75
- Interaction [1, 9]: Synergistic (Combinations that gave FIC indices less than 1 were designated “synergistic”)
- Interaction [1, 10]: Synergistic (Combinations that gave FIC indices less than 1 were designated “synergistic”)
- FIC index [1, 11]: 0.5
- Interaction [1, 11]: Synergistic (Combinations that gave FIC indices less than 1 were designated “synergistic”)
- FIC [1, 12]: 0.125
- FIC [1, 13]: 0.125
- FIC [1, 14]: 0.25
- FIC [1, 15]: 0.25
- MIC ([2]; Table 9, caprylic acid (C8) series): 8 µg/mL
- MIC ([2]; Table 10, propylene glycol monocaprylate series): 16 µg/mL
- MIC ([2]; Table 11, glyceryl monocaprylate series): 16 µg/mL
- MIC ([2]; Table 12, undecylenic acid (C11) series): 16 µg/mL
- MIC ([2]; Table 13, lauric acid (C12) series): 8 µg/mL
- MIC ([2]; Table 14, propylene glycol monolaurate series): 16 µg/mL
- Combination MIC [2, 3]: 0.25 µg/mL
- Combination MIC [2, 4]: 4 µg/mL
- Combination MIC [2, 5]: 1 µg/mL
- Combination MIC ([2]; agent's MIC in combination antifungal + propylene glycol monocaprylate (partner: other agent of same combination no.)): 4 µg/mL
- Combination MIC [2, 6]: 8 µg/mL
- Combination MIC ([2]; agent's MIC in combination antifungal + undecylenic acid (partner: other agent of same combination no.)): 2 µg/mL
- FIC index [2, 7]: 0.093
- Interaction [2, 7]: Synergistic (Combinations that gave FIC indices less than 1 were designated “synergistic”)
- FIC index [2, 8]: 0.5
- Interaction [2, 8]: Synergistic (Combinations that gave FIC indices less than 1 were designated “synergistic”)
- FIC index [2, 9]: 0.187
- Interaction [2, 9]: Synergistic (Combinations that gave FIC indices less than 1 were designated “synergistic”)
- FIC index [2, 10]: 0.312
- Interaction [2, 10]: Synergistic (Combinations that gave FIC indices less than 1 were designated “synergistic”)
- FIC index [2, 11]: 0.515
- Interaction [2, 11]: Synergistic (Combinations that gave FIC indices less than 1 were designated “synergistic”)
- FIC index [2, 16]: 0.187
- Interaction [2, 16]: Synergistic (Combinations that gave FIC indices less than 1 were designated “synergistic”)
- FIC [2, 12]: 0.031
- FIC [2, 13]: 0.25
- FIC [2, 14]: 0.125
- FIC ([2]; combination antifungal + propylene glycol monocaprylate): 0.25
- FIC [2, 15]: 0.5
- FIC ([2]; combination antifungal + undecylenic acid): 0.125
- combination activity (interaction) with oleic acid (C18) (C. albicans): antagonistic effect
